In patent US10039806B2, “Methods and compositions for treating antiprogestin-resistant cancers” (Fundación Sales, priority 2011, dated 2018):

What was measured:
[1] = tested on: primary cultures of responsive tumors; experiment: Primary cultures of responsive tumors of the MPA model; format: cell-based, mouse
C4-HI [2] = experiment: MPA breast cancer model, responsive tumor in vivo; design: species or system mouse
breast cancer samples = experiment: Cultured breast cancer slices (chopper), Ki67; format: cell-based, human; details: 10 nM, 48 hs
Source text: Sections of formalin-fixed, paraffin-embedded tissue were stained with PR (C-19), or Ki67 (Dako, […]) antibodies using the avidin-biotin-peroxidase complex technique (Vectastain Elite ABC kit; Vector), as described previously (6). Positive cells were counted in 10 high-power fields (HPFs) of each section, using 1000× magnification, and expressed as the mean±SEM of the ratio between the number of positive events and the total cell number. Following the previous experiments shown in PART 1, breast cancer samples obtained after surgery from the Hospital General Pacheco (IRB approved by Hospital and IBYME) were used. Whenever possible, part of the sample is immediately frozen to be used in Western blot studies, other part is fixed to be used in IHC studies and a similar part is kept in medium culture. Slices obtained using a chopper were cultured for 48 hs with DMEM/F12 without phenol red and 10% fetal cal serum with or without MFP 10 nM. Tumor slices were then fixed, paraffin embedded and processed for immunohistochemistry. Cell proliferation was evaluated using Ki67 as described above. The number of slices depends on the sample size.

C4-2-HI and 59-HI cells = experiment: (3H)-thymidine incorporation with 5azadC and RU-486 in 10% FCS; format: cell-based, mouse; details: 5 μM 5azadC, 100 nM RU-486; P<0.001
Method: (3H)-thymidine-uptake was used as an indirect method to evaluate cell proliferation. In brief, cells were seeded into 96-well microplates. After attachment (24 h), the cells were incubated for 24 h with 1% steroid-stripped FCS and then for 48 h with the experimental solutions to be tested in 1% chFCS. Fifty percent of the medium was replaced with fresh medium every 24 h. […] In experiments in which 5azadC was used, the experiments were carried out using proliferating cells (presence of 10% FCS) to guarantee the effect of the demethylating agent. Three different experiments were made using octuplicates, and the means and standard deviations of one representative experiment of the other three are shown.

[3] = tested on: C4-HI or C4-HIR epithelial cells with carcinoma-associated fibroblasts; experiment: (3H)-thymidine uptake, co-cultures with carcinoma-associated fibroblasts; format: cell-based, mouse; details: own or other tumor's fibroblasts
Method: Trypsinized cells were resuspended and equal amounts of epithelial cells and carcinoma-associated fibroblasts were seeded with 10% FCS that was replaced after attachment by 1% steroid-stripped FCS. […] The same amount of epithelial cells or carcinoma-associated fibroblasts or double the amount of purified cells was used for comparison.
(3H)-thymidine-uptake was used as an indirect method to evaluate cell proliferation. In brief, cells were seeded into 96-well microplates. After attachment (24 h), the cells were incubated for 24 h with 1% steroid-stripped FCS and then for 48 h with the experimental solutions to be tested in 1% chFCS. Fifty percent of the medium was replaced with fresh medium every 24 h. The cells were incubated with 0.4 μCi of 3H-thymidine (specific activity: 20 Ci/mmol) for 24 h, trypsinized, and harvested in a cell harvester. In experiments in which 5azadC was used, the experiments were carried out using proliferating cells (presence of 10% FCS) to guarantee the effect of the demethylating agent. Three different experiments were made using octuplicates, and the means and standard deviations of one representative experiment of the other three are shown. The results are expressed as the proliferation index (cpm […] experimental group/cpm control; mean±SEM).

T47D cells = details: cited from earlier work
[4] = tested on: epithelial cells from breast cancer samples; experiment: Primary cultures from breast cancer samples: cell number or Ki67; format: cell-based, human
Source text: The samples were obtained at surgery from patients diagnosed with breast cancer at the […]. de Martinez Hospital from General Pacheco and at the […] Hospital of Buenos Aires after signing the informed consent (n=70; median age 55 year). Protocols were approved by the Institutional Ethical Review Board. Whenever possible, one piece of the sample was kept in dry ice immediately after surgery and another piece was kept in culture medium and transported to IBYME. Tumor samples were processed by mechanical and enzymatic degradation and epithelial cells were purified by differential sedimentation techniques (7). The epithelial cells were cultured with DMEM/F12 medium plus 10% fetal calf serum (FCS). Once the cultures were overcrowded, they were subcultured and equal numbers of cells were seeded in 24 well plates. […] OH-Tamoxifen was also used as a control. After one week of treatment, the cells were trypsinized and the total number of cells in each well was counted or alternatively, they were fixed to evaluate the Ki67 (proliferation marker) expression by IHC. In several cases in which there were carcinoma associated fibroblasts intermingled with the epithelial cells, a double staining of Ki67 and cytokeratin (CK) was performed to consider the proliferating cells among the total number of epithelial cells (CK+). An inhibitory index was calculated for each tumor.

[5] = tested on: thymic, renal pelvis, colon, pancreatic carcinomas, leiomyosarcoma, histiocytoma; details: 200 mg/day; cited from earlier work
C4-HI [6] = details: concentrations lower than growth inhibitory ones; cited from earlier work
mammary gland = details: cited from earlier work
mammary glands = details: 50 mg/every other day, three months; cited from earlier work

CC#C[C@]1(O)CC[C@H]2[C@@H]3CCC4=CC(=O)CCC4=C3[C@@H](c3ccc(N(C)C)cc3)C[C@@]21C [RU-486, mifepristone]
ERK phosphorylation [1]: increased ERK phosphorylation
differentiation (histology) (C4-HI [2]; mouse, in vivo): increase in differentiation
tumor growth (C4-HI [2]; tumors with higher PR-A than PR-B, FIG. 15): completely inhibited
Ki67 (breast cancer samples; 1 PR negative case): no inhibition was observed
Ki67 (breast cancer samples; 1 case PRA/PRB lower than 1): significant inhibition
Ki67 (breast cancer samples; 2 cases PRA/PRB lower than 1): no inhibition was observed
Ki67 (breast cancer samples; 3 cases PRA/PRB high): significant inhibition of Ki67
Ki67, stimulation (breast cancer samples; PRA/PRB lower than 1, FIG. 25): significant stimulation
cell proliferation, (3H)-thymidine incorporation (C4-2-HI and 59-HI cells): did not alter cell proliferation
co-culture cell proliferation [3]: inhibited
effects on T47D cells (T47D cells; 5% FCS): inhibitory effects
proliferation of T47D and MCF-7 cells (T47D cells; MIF at micromolar concentrations): stimulate the proliferation
E2-induced cell proliferation (T47D cells; clone 11, ER- and PR-positive): specifically inhibit E2-induced cell proliferation
number of cells as compared to the controls ([4]; 10^-8 M, one week, 3 out of 8 cases, p<0.05): significant decrease in the number of cells
cell proliferation, case #137 ([4]; ER+ PR+ invasive ductal carcinoma, high PR-A/PR-B, 10^-8 M): decrease in cell proliferation
effect on cell proliferation ([4]; samples with high levels of PR-A expression): inhibitory effect
in vitro responsiveness ([4]; three PR negative tumors): no in vitro responsiveness
clinical outcome [5]: Improvements and pain relief were observed in all patients
tumor growth at low doses (C4-HI [6]): stimulated C4-HI growth
PR activation in luminal cells (mammary gland; (5 mg/kg) body weight): induced activation of the PR in luminal cells to an even greater degree than did the pure agonist R5020
MPA-induced branching (mammary gland; BALB/c female mice, 10 mg/kg daily, one week): reverted MPA-induced branching
mammary hyperplasia (mammary gland; PR-A transgenic mice or FGF2-treated mice): unable to revert mammary hyperplasia
cell proliferation in mammary gland aspirates (mammary glands): Inhibition of cell proliferation
